Assays:
Format in all cases: cell-based, mouse
[1] = system: chondrocytes; test: [3H] thymidine incorporation in DNA (cell proliferation), primary chondrocytes culture
Method: To assess peptide ability to induce cell proliferation, inventors carried out a test showing [H^3] thymidine incorporation during DNA duplication according to Kurz et al., 1997 method. This test was adapted to the model used by the inventors, namely a primary mouse embryonic chondrocytes culture.
Chondrocytes, obtained by dissociation of mouse mandible condyles (MCDC) were incubated in a culture medium permitting chondrogenesis, in particular, 5×10^5 cells/ml were incubated with 1 μCi [^3H]-thymidine/ml of medium (Amersham, code TRA120, stock 1 mCi/ml, specific activity 5 Ci/mmol) for 3 hours at 37° C. in DMEM medium (Dulbecco's modified Eagle's medium) fetal calf serum (FCS) free but supplemented with 100 μg/ml of ascorbic acid, 1 mmol/L of calcium chloride, 10 mmol/L of 3-glycerophosphate, and antibiotics. Same medium, in which 5 μl of [^3H]-thymidine are added for 2 minutes, is used as negative control. Supernatant was removed and cells were washed twice with saline solution buffered at pH 7.0 (PBS), the cells are washed twice (for 5 minutes) with methanol. Then the cells are washed three times with a 10% trichloroacetic acid (TCA) cold solution. After washing cells twice with DDW, cells are incorporated in 200 μl of 0.3M NaOH for 15 minutes. The cells are then transferred in 3 ml of a neutralized scintillation fluid with 200 μl of 0.3M HCl. […]

[2] = system: type II collagen; test: Type II collagen production by immunochemistry, chondrocytes culture (FIG. 5); settings: 10^-7M peptide; 5th day of culture
Method: The mouse embryos chondrocytes obtained according to same protocol as described above were cultured and incubated at a 10^−7M peptide P70 concentration. […] In fact, an increase of 150% is observed relative to the untreated control.

[3] = system: IGF-1; test: IGF-1 synthesis by immunohistochemistry, primary chondrocytes culture (FIG. 4); settings: IHC
Text: Moreover (FIG. 4), P70 inhibits IGF-1 synthesis at 10^−6M (30% inhibition at a high concentration of peptide) and stimulates IGF-1 synthesis at 10^−7M (90% increase at a low concentration of peptide).

[4] = system: IGF-1R; test: IGF-1R expression in chondrocytes in culture, optical density (FIG. 2)
Text: (§1) Inventors investigated P70 effect on IGF-1 synthesis and on expression of its receptor (IGF-1R) by means of chondrocytes in culture.

[5] = system: chondrocytes; test: Chondrogenesis: cartilage nodule formation in chondrocytes culture (FIG. 6); settings: 10^-7M peptide; 7th day of incubation; vs untreated chondrocytes
Method: In FIG. 6, the peptide P70 effect at a concentration of 10^−7M is compared with untreated chondrocytes (control). At 7th day of incubation, in the presence of the peptide, accelerated formation of nodules of cartilage is clearly observed. The cartilage nodules development (volume/culture) is 85% accelerated.

[6] = system: IGF-1; test: IGF-1 production in chondrocytes in culture (FIG. 2)
Text: as §1

[7] = system: IGF-1 receptor; test: IGF-1R expression by immunohistochemistry, 5-day primary chondrocytes culture (FIG. 3); settings: IHC, 5-day culture

Q: What does the source list for “Acetyl-SNFGSRKFSYKAKFWTDVTTSELG-amide (Ac-SNFGSRKFSYKAKFWTDVTTSELG-NH2) [P70, 24-mer peptide of the invention, N-terminal acetyl, C-terminal amide]”?
A: stimulatory effect on the proliferation of chondrocytes, greater than the untreated control ([1]; 10^-6M peptide, 3 hours): 53%; stimulation effect on the proliferation of chondrocytes ([1]; 10^-7M peptide): not observed; increase of type II collagen production relative to the untreated control [2]: 150%; inhibition of IGF-1 synthesis ([3]; 10^-6M peptide): 30%; increase of IGF-1 synthesis ([3]; 10^-7M peptide): 90%; effect on the production of IGF-1 receptor ([4]; 10^-6M peptide): virtually inhibits; effect on expression of IGF-1 receptor (IGF-1R) ([4]; 10^-7 M peptide): important stimulation effect; acceleration of cartilage nodules development (volume/culture) [5]: 85%; effect on the production of IGF-1 ([6]; 10^-6M peptide): virtually inhibits; effect on IGF-1 production ([6]; 10^-7 M peptide): important stimulation effect; inhibition of IGF-1 receptor expression ([7]; 10^-6 M peptide): 36.8%; increase of IGF-1 receptor expression ([7]; 10^-7 M peptide): 23.8%

From patent publication US8802815B2, “Peptides and uses thereof to modulate IGF-1 synthesis and IGF-1 receptor expression” (Universite Pierre et Marie Curie (Paris 6), priority 2009, dated 2014)
